{"source": "patent US8715745B2", "about": "(priority 2009, dated 2014)", "key": {"Phytophthora infestans": {"tested_on": "Phytophthora infestans", "assay_type": "in vivo, Phytophthora infestans on tomato plant", "conditions": "50 ppm hydrazone with 50 μM CuCl2.2H2O, applied 24 h before inoculation, assessed 7 days after inoculation, tomato"}, "[1]": {"tested_on": "Leptosphaeria nodorum (LEPTNO)", "test": "In vitro fungitoxicity (growth inhibition) against Leptosphaeria nodorum in copper-minus and copper-plus medium", "assay_type": "cell-based", "conditions": "0.05 μg/mL, 72 h", "description": "In vitro fungitoxicity assays against Leptosphaeria nodorum (LEPTNO) were conducted using the liquid growth medium described by Coursen and Sisler (American Journal of Botany 1960, 47, 541-549) except that copper micronutrient, normally included as CuSO4, was omitted. The medium, termed “copper-minus”, was prepared by dissolving 10 g glucose, 1.5 g K2HPO4, 2 g KH2PO4 and 1 g (NH4)2SO4 in 1 liter of deionized water and treating the solution with 0.5 g Chelex 100 resin (Bio-Rad Analytical grade, 50-100 mesh, sodium form, cat#142-2822) by stirring at room temperature for 1 h. MgSO4.7H2O (0.5 g) was added, and stirring was continued for a further hour. Trace elements (minus CuSO4), and vitamins described by Coursen and Sisler were added from concentrated stock solutions and the entire medium was sterilized by filtration. Medium containing copper was prepared by adding CuCl2.2H2O to the copper-minus medium at 20 μM. […]\nLEPTNO was grown on potato dextrose agar in 9 cm diameter petri dishes for 7 days. […] Microtiter plates were inoculated with 100 μL of this spore suspension and the plates incubated at 25° C. for 72 h before assessing fungal growth by measuring light scattering in a NepheloStar plate reader. Growth inhibition was determined by comparing growth in the presence of test compound with growth in control wells lacking test compound. […]"}, "Ustilago maydis": {"tested_on": "Ustilago maydis", "test": "In vitro fungitoxicity (growth inhibition) against Ustilago maydis in copper-minus and copper-plus medium", "assay_type": "cell-based", "conditions": "for % Inhn. Plus copper Predicted: 1 μg/mL, Colby formula", "description": "(§1) In vitro fungitoxicity assays against Ustilago maydis were conducted using the copper-minus medium described in Example 5. Medium containing copper was prepared by adding CuCl2.2H2O to the copper-minus medium at 20 μM. Test compounds were dissolved in dimethylsulfoxide (DMSO) at 200 μg/mL and 1 μL aliquots were added to two wells of flat-bottomed 96-well microtiter plates. Copper-minus medium (100 μL) was added to one of the wells and copper-plus medium to the second well. Control wells, included for each medium, received 1 uL DMSO and 100 μL of medium.\nUstilago maydis was grown in 50 mL potato dextrose broth with shaking at 25° C. for 24 h. A 10 mL aliquot of the culture was centrifuged at 2000 rpm for 2 min, resuspended in 10 mL of sterile Chelex 100-treated water, and centrifuged again. The spores were resuspended in copper-minus medium, and the suspension adjusted to a concentration of 1×10^5 spores per mL. Microtiter plate wells containing test compound of DMSO (control) as described above were inoculated with 100 μL of this spore suspension and the plates incubated at 25° C. for 48 h before assessing fungal growth by measuring light scattering in a NepheloStar plate reader. Growth inhibition was determined by comparing growth in the presence of test compound with growth in control wells lacking test compound.\nResults for growth inhibition by test compounds at 1 μg/mL in copper-plus medium (“% Inhn Plus Copper Observed”) were compared with predicted results (“% Inhn Plus Copper Predicted”) that were calculated using the formula set forth by S. R. Colby in Weeds 1967, 15, 20-22 based on results obtained for the same compounds in copper-minus medium (“% Inhn Minus Copper Observed”) and the inhibition attributed to copper chloride alone, as determined by comparing growth in copper-minus and copper-plus media without any test compound. Results illustrate that hydrazones and copper produce a synergistic fungitoxic effect towards Ustilago maydis."}, "Phytophthora capsici": {"tested_on": "Phytophthora capsici", "test": "In vitro fungitoxicity (growth inhibition) against Phytophthora capsici in copper-minus AS and copper-plus AS medium", "assay_type": "cell-based", "conditions": "for % Inhn Plus copper Predicted: 0.050 μg/mL, Colby formula", "description": "In vitro fungitoxicity assays against Phytophthora capsici were conducted using the asparagine-sucrose (AS) medium described in Canadian Journal of Microbiology 1961, 7, 15-25, except that copper micronutrient, normally included as CuSO4, was omitted. The medium, termed “copper-minus AS”, was prepared by dissolving 2 g asparagine, 0.43 g KH2PO4, 0.3 g K2HPO4, 0.4 mL of a 0.5 mg/mL thiamine-HCl solution and 15 g sucrose in 1 liter of deionized water and treating the solution with 0.5 g Chelex 100 resin (Bio-Rad Analytical grade, 50-100 mesh, sodium form, cat#142-2822) by stirring at room temperature for 1 h. The pH was adjusted to 6.4, then MgSO4.7H2O (100 μg/mL), FeSO4.7H2O (1 μg/mL), CaCl2 (50 μg/mL), ZnSO4.7H2O (1 μg/mL), NaMoO4.2H2O (0.2 μg/mL) and MnCl2.4H2O (0.2 μg/mL) were added and the entire medium was sterilized by filtration. “Copper-plus AS” medium was prepared by adding CuCl2.2H2O to the copper-minus AS medium at 100 μM. Test compounds were dissolved in DMSO then dilutions in copper-minus AS and copper-plus AS media were prepared as 100 μL aliquots in flat-bottomed 96-well microtiter plates.\nPhytophthora capsici was grown on petri plates, 9 cm in diameter, containing 15 mL V-8 agar, pH 7.0, containing 200 mL V-8 juice, 4 g CaCO3, and 20 g agar per liter. Plates were inoculated with 7-mm plugs from a 1-week old culture, incubated at 25° C. in the dark for 3 days, and then placed under fluorescent lights for 4 days to induce sporulation. Zoospore release from sporangia was induced by adding 15 mL of sterile deionized water (which had been treated with Chelex 100 resin using 0.5 g resin per liter of water by stirring at room temperature for 1 h) to each plate, and incubating for 10 min at 25° C. followed by 20 min at 4° C. The plates were returned to 25° C. for 10 min and the aqueous suspension of released zoospores was recovered. The zoospore suspension was adjusted to 5×10^4 spores/mL by dilution into Chelex 100-treated water. Microtiter plates were inoculated with 100 μL of spore suspension and incubated at 25° C. for 48 h before assessing fungal growth by measuring light scattering in a NepheloStar plate reader. Growth inhibition was determined by comparing growth in the presence of test compound with growth in control wells lacking test compound.\nResults for growth inhibition by test compounds in copper-plus AS medium (“% Inhn Plus Copper Observed”) were compared with predicted values (“% Inhn Plus Copper Predicted”) that were calculated using the formula set forth by S. R. Colby in Weeds (1967), 15, 20-22 based on results obtained for the same compounds in copper-minus AS medium (“% Inhn Minus Copper Observed”) and the inhibition attributed to copper chloride alone, as determined by comparing growth in copper-minus AS and copper-plus AS media without any test compound across experiments. Results illustrate that hydrazones and copper produce a synergistic fungitoxic effect towards Phytophthora capsici."}, "[2]": {"tested_on": "Septoria tritici isolate USA-184", "test": "In vitro fungitoxicity (growth inhibition) against Septoria tritici in copper-minus and copper-plus medium", "assay_type": "cell-based", "conditions": "CuCl2 1 μM without test compound", "description": "as §1, with “Septoria tritici” for “Ustilago maydis”, “2” for “20”, “10” for “200”\nSeptoria tritici isolate USA-184 was grown on potato dextrose agar at 18° C. under black lights for 3 days. A loopful of spores was transferred from the culture to a 15 mL tube containing 5 mL of sterile Chelex-treated water. The spores were centrifuged at 2000 rpm for 2 min, resuspended in 10 mL water, and centrifuged again. […] Microtiter plate wells containing test compound of DMSO (control) as described above were inoculated with 100 μL of this spore suspension and the plates incubated at 25° C. for 90 h before assessing fungal growth by measuring light scattering in a NepheloStar plate reader. Growth inhibition was determined by comparing growth in the presence of test compound with growth in control wells lacking test compound. […]"}, "[3]": {"tested_on": "Staphylococcus aureus, Escherichia coli, Aspergillus niger and A. flavus", "conditions": "literature report, Proceedings of the National Academy of Sciences, India 1991; cited from earlier work"}}, "data": [{"molecule": "O=C(N/N=C/c1cc(Cl)c(Cl)cc1O)c1ccccc1", "note": "[Compound 5]", "values": [{"measurement": "TLB % Control", "setting": "Phytophthora infestans", "result": 66.1, "unit": "%"}, {"measurement": "melting point", "result": "206 to 208", "unit": "°C"}, {"measurement": "LEPTNO % Inhn. Plus Copper Observed", "setting": "[1]; copper-plus medium (CuCl2, 10 μM)", "result": 97.8, "unit": "%"}, {"measurement": "inhibition of growth at 0.05 µg/mL", "setting": "[1]; Parastagonospora nodorum, copper-minus medium, read-out: LEPTNO % Inhn. Minus Copper Observed", "result": 0.1, "unit": "%"}]}, {"molecule": "Cc1ccc(C(=O)N/N=C/c2ccc(Cl)c(Cl)c2O)c(O)c1", "note": "[Compound 20]", "values": [{"measurement": "% Inhn. Plus copper Predicted", "setting": "Ustilago maydis", "result": 69.6, "unit": "%"}, {"measurement": "% Inhn Plus copper Predicted", "setting": "Phytophthora capsici", "result": 4.5, "unit": "%"}]}, {"molecule": "O=C(N/N=C/c1c(Cl)ccc(Cl)c1O)c1cccc(Cl)c1", "note": "[Compound 25]", "values": [{"measurement": "% Inhn. Plus copper Predicted", "setting": "Ustilago maydis", "result": 14.7, "unit": "%"}, {"measurement": "% Inhn Plus copper Predicted", "setting": "Phytophthora capsici", "result": 4.5, "unit": "%"}]}, {"molecule": "O=C(N/N=C/c1c(O)cccc1Cl)c1ccc([N+](=O)[O-])cc1", "note": "[Compound 50]", "values": [{"measurement": "% Inhn. Plus copper Predicted", "setting": "Ustilago maydis", "result": 20.4, "unit": "%"}, {"measurement": "% Inhn Plus copper Predicted", "setting": "Phytophthora capsici", "result": 5.1, "unit": "%"}]}, {"molecule": "O=C(N/N=C/c1cccc(Cl)c1O)c1cccc(Cl)c1", "note": "[Compound 58]", "values": [{"measurement": "% Inhn. Plus copper Predicted", "setting": "Ustilago maydis", "result": 42.1, "unit": "%"}, {"measurement": "% Inhn Plus copper Predicted", "setting": "Phytophthora capsici", "result": 13.2, "unit": "%"}]}, {"molecule": "O.O.[Cl][Cu][Cl]", "note": "[CuCl2, CuCl2.2H2O, reference compound]", "values": [{"measurement": "% Inhibition, copper chloride alone", "setting": "[2]", "result": 0, "unit": "%"}, {"measurement": "% Inhibition, copper chloride alone", "setting": "[2]; listed as copper chloride", "result": "no effect on growth"}, {"measurement": "% Inhn., copper chloride alone", "setting": "Ustilago maydis; CuCl2 10 μM without test compound", "result": 11.9, "unit": "%"}, {"measurement": "% Inhn, copper chloride alone", "setting": "Phytophthora capsici; CuCl2 50 uM without test compound, across experiments", "result": "4.5 ± 7.9", "unit": "%"}]}, {"molecule": "O=C(NN=Cc1ccccc1O)c1ccccc1O", "note": "[o-hydroxybenzaldehyde-N-salicyloylhydrazone]", "values": [{"measurement": "antimicrobial activity", "setting": "[3]", "result": "Antimicrobial activity has been reported"}]}]}
